Target: T1, Angiotensin-converting enzymes from porcine kidneys (EC 3.4.15.1) (Sus scrofa, UniProt F1RRW5)
T1 construct: gene ACE; native enzyme from porcine kidney (Sigma), lyophilized
T1 sequence (F1RRW5 34-1309): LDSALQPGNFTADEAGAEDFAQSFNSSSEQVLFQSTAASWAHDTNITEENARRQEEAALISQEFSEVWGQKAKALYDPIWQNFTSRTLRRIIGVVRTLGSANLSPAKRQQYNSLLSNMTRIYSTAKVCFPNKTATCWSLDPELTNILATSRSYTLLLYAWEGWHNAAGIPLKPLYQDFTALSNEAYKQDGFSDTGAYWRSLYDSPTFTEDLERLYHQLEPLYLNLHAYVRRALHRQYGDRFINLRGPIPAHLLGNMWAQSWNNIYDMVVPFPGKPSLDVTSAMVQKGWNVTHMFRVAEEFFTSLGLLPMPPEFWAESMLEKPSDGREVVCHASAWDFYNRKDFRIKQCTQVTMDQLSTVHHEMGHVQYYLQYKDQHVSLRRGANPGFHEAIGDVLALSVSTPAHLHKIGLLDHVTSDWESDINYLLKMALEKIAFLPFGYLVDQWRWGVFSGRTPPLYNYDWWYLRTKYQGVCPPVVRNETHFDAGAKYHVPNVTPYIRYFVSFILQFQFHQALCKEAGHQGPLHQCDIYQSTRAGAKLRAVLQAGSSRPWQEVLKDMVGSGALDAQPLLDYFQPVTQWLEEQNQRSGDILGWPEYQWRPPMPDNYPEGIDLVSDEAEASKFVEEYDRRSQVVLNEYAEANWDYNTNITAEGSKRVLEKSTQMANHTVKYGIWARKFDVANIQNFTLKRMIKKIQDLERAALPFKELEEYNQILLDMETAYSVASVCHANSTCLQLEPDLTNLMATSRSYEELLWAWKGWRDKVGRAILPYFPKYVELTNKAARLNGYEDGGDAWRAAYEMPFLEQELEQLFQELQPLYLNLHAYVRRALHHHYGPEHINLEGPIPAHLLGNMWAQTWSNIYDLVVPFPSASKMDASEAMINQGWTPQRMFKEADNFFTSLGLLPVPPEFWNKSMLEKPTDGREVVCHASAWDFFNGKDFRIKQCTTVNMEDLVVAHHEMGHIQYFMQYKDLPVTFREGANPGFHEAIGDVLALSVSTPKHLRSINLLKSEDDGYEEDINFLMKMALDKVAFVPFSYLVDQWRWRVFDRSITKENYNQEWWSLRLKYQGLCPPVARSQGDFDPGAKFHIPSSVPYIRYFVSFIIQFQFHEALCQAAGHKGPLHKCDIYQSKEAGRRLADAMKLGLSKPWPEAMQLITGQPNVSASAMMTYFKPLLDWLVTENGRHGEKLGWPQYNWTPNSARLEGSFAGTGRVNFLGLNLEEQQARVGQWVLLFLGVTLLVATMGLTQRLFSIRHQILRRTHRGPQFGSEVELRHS
Assay: microplate fluorometric assay, OPA detection of His-Leu
Format: biochemical
Conditions: read-out: IC50 (μg mL^-1) (converted)

O=c1c(O)c(-c2ccc(O)c(O)c2)oc2cc(O)cc(O)c12 [quercetin]
IC50: 129 µM

Source: PMC3485629, “Bioactivity comparison of extracts from various parts of common and tartary buckwheats: evaluation of the antioxidant- and angiotensin-converting enzyme inhibitory activities” (Chemistry Central Journal, 2012)
